Assay results taken from publication PMC8746328, “Three New Isoprenylated Flavones from Artocarpus chama Stem and Their Bioactivities” (Molecules, 2021).
In brackets after ≈: the same amount, converted by molar mass. Where two headings read alike, the source gives them in different places.

Legend:
[1] = system: methicillin-resistant Staphylococcus aureus (DMST20654); experiment: Antimicrobial activity, broth microdilution; type: cell-based; conditions: MRSA
Experimental: (§1) Microorganisms that cause skin infection, such as Staphylococcus aureus (ATTC 25923), Staphylococcus epidermidis (TISTR 517), Cutibacterium acnes (DMST 14916), and methicillin-resistant Staphylococcus aureus (DMST20654),t were selected for this study. The isolated compounds were determined for minimum inhibitory concentration (MIC) and minimum bactericidal concentration (MBC) by a modified broth microdilution method. Briefly, 20 µL of the test samples (dilution series ranging from 2560 to 1.25 µg/mL) was added in wells 1 to 12. Then, 80 µL of media was added into each well. Next, 100 µL of the inoculum (concentration 10^6 CFU/mL) was added in each well. The final concentration of inoculum in each well was 5 × 10^5 CFU/mL. Then, the cultures were incubated follow the conditions. Incubation mixtures showing positive results of inhibitory effect (MIC) were streaked on media agar, and then incubated by following the conditions.

[2] = system: Staphylococcus epidermidis (TISTR 517); experiment: Antimicrobial activity, broth microdilution; type: cell-based; conditions: TISTR517, S. epidermidis
Experimental: as §1

[3] = system: Cutibacterium acnes (DMST 14916); experiment: Antimicrobial activity, broth microdilution; type: cell-based; conditions: C. acnes
Experimental: as §1

[4] = system: Staphylococcus aureus (ATTC 25923); experiment: Antimicrobial activity, broth microdilution; type: cell-based; conditions: S. aureus
Experimental: as §1

tyrosinase enzyme = experiment: Enzymatic antityrosinase activity, dopachrome method (L-Dopa substrate); type: biochemical; conditions: pH 6.8, 25 °C
Experimental: Antityrosinase activity was determined by the dopachrome method. L-dopa was used as the substrate. Oxidation of L-Dopa to dopachrome which, represented by red color, could be detected by visible light at 492 nm. Briefly, 140 µL of phosphate buffer pH 6.8, 20 µL of sample solution (200 µg/mL), and 2 µL of tyrosinase enzyme solution (203.3 unit/mL) were mixed in a 96-well plate at 25 °C for 10 min. Then, 20 µL of L-Dopa (0.85 mM) was added, and optical density (OD) was detected. After incubation at 25 °C for 20 min, OD was detected again. Dimethyl sulfoxide (DMSO) was used as a negative control. […] The percent inhibition of tyrosinase reaction was calculated by the following equation:Tyrosinase inhibition (%) = [1 − (OD492 of sample/OD492 of control)] × 100.

B16F1 melanoma cells [5] = experiment: Intracellular antityrosinase activity; type: cell-based, murine; conditions: 50 µg/mL, 48 h
Experimental: (§2) Murine melanoma B16-F1 cells (CLS-400122) were cultured in DMEM or Dulbecco’s modified Eagle medium containing 10% FBS heat-inactivated fetal bovine serum at 37 °C in a humidified atmosphere with 5% CO2. When cells reached 70–80% confluence cell viability, cellular tyrosinase activity and melanin content were measured. First, 3 × 10^5 cells/well were seeded in 12-well plates and allowed to adhere at 37 °C for 12 h. Cells were treated with test samples; control cells were treated with 0.5% DMSO. After 48 h incubation, cells were lysed with RIPA and centrifuged at 14,000 rpm for 20 min (4 °C) in order to separate the supernatant for measurement of tyrosinase activity, and the cell pellet was measured for melanin content. The supernatant was collected for determination of protein content by the Bradford method, with bovine serum albumin (BSA) used as a standard. The supernatant of lysate cells and 2 mg/mL L-Dopa were added to a 96-well plate and incubated at 25 °C for 1 h. After that, optical densities were determined at 492 nm. Tyrosinase inhibition was then calculated.

B16F1 melanoma cells [6] = experiment: Melanin content; type: cell-based, murine; conditions: 50 µg/mL, 48 h
Experimental: as §2, with “Cell pellets were dissolved” for “The supernatant was collected for determination of protein content by the Bradford method,”, “1M NaOH” for “bovine serum albumin (BSA) used as a standard. The supernatant of lysate cells and 2 mg/mL L-Dopa were added to a 96-well plate”, “55” for “25”, “Melanin content was calculated by comparison with the standard curve of synthetic melanin” for “After that, optical densities were determined”, “475” for “492”, “nm.” for “nm. Tyrosinase inhibition was then calculated.”

Compound | MIC ([1]; read-out: MIC) [µg/mL] | MIC [2] [µg/mL] | MIC [3] [µg/mL] | MIC [4] [µg/mL] | IC50 on tyrosinase inhibitory activity (tyrosinase enzyme) [µg/mL] | MBC ([1]; read-out: MBC) [µg/mL] | MBC [2] [µg/mL] | MBC [3] [µg/mL] | MBC [4] [µg/mL] | MBC [1] [µg/mL] | MIC [1] [µg/mL] | Intracellular antityrosinase activity (result in words) (B16F1 melanoma cells [5]) | Intracellular antityrosinase activity (result in words) (B16F1 melanoma cells [5]; listed as artocarpanone) | Melanin content (result in words) (B16F1 melanoma cells [6])
COc1cc([C@@H]2CC(=O)c3c(O)cc(O)cc3O2)ccc1O [Compound 4, Homoeriodictyol] | > 256 | 128 (≈ 423 µM) | > 256 | 256 (≈ 847 µM) | – | > 256 | 256 (≈ 847 µM) | > 256 | > 256 | – | – | – | – | –
O=C1C[C@@H](c2ccc(O)cc2)Oc2cc(O)cc(O)c21 [Compound 7, Naringenin] | > 256 | 256 (≈ 940 µM) | > 256 | > 256 | >200 | > 256 | > 256 | > 256 | > 256 | – | – | – | – | –
CN[C@H](CC(C)C)C(=O)N[C@H]1C(=O)N[C@@H](CC(N)=O)C(=O)N[C@H]2C(=O)N[C@H]3C(=O)N[C@H](C(=O)N[C@H](C(=O)O)c4cc(O)cc(O)c4-c4cc3ccc4O)[C@H](O)c3ccc(c(Cl)c3)Oc3cc2cc(c3O[C@@H]2O[C@H](CO)[C@@H](O)[C@H](O)[C@H]2O[C@H]2C[C@](C)(N)[C@H](O)[C@H](C)O2)Oc2ccc(cc2Cl)[C@H]1O [Van, Vancomycin, reference compound] | – | – | – | – | – | – | – | – | – | 0.5 (≈ 0.345 µM) | 0.125 (≈ 0.0863 µM) | – | – | –
Cc1onc(-c2ccccc2)c1C(=O)N[C@@H]1C(=O)N2[C@@H]1SC(C)(C)[C@@H]2C(=O)O [Oxa, Oxacillin, reference compound] | – | 0.5 (≈ 1.25 µM) | 0.5 (≈ 1.25 µM) | 0.125 (≈ 0.311 µM) | – | – | 0.5 (≈ 1.25 µM) | 0.5 (≈ 1.25 µM) | 0.125 (≈ 0.311 µM) | – | – | – | – | –
CC1(C)C=Cc2c(cc3oc4c(c(=O)c3c2O)CC2c3c(c(O)cc(O)c3-4)OC2(C)C)O1 (stereo not shown) [Compound 5, Isocycloartobiloxanthone] | 16 (≈ 36.8 µM) | 4 (≈ 9.21 µM) | 256 (≈ 589 µM) | 4 (≈ 9.21 µM) | >200 | 64 (≈ 147 µM) | 8 (≈ 18.4 µM) | > 256 | 8 (≈ 18.4 µM) | – | – | – | – | –
COc1cc(O)c2c(c1)O[C@H](c1ccc(O)cc1O)CC2=O [Compound 6, Artocarpanone] | 128 (≈ 423 µM) | 64 (≈ 212 µM) | 32 (≈ 106 µM) | 64 (≈ 212 µM) | 38.78 ± 1.02 (≈ 128 µM) | > 256 | 128 (≈ 423 µM) | 64 (≈ 212 µM) | 256 (≈ 847 µM) | – | – | exhibited antityrosinase activity | exhibited intracellular antityrosinase activity | could reduce the amount of melanin content

Further lines, with some results ahead:

MIC ([1]; read-out: MIC) [µg/mL] | MIC [2] [µg/mL] | MIC [3] [µg/mL] | MIC [4] [µg/mL] | IC50 on tyrosinase inhibitory activity (tyrosinase enzyme) [µg/mL] | Compound | MBC ([1]; read-out: MBC) [µg/mL] | MBC [2] [µg/mL] | MBC [3] [µg/mL] | MBC [4] [µg/mL] | MBC [1] [µg/mL] | MIC [1] [µg/mL] | Intracellular antityrosinase activity (result in words) (B16F1 melanoma cells [5]) | Intracellular antityrosinase activity (result in words) (B16F1 melanoma cells [5]; listed as artocarpanone) | Melanin content (result in words) (B16F1 melanoma cells [6])
2 (≈ 4.58 µM) | 2 (≈ 4.58 µM) | 8 (≈ 18.3 µM) | 2 (≈ 4.58 µM) | >200 | COc1cc2oc(-c3ccc(O)cc3O)c(CC=C(C)C)c(=O)c2c(O)c1/C=C/C(C)C [Compound 8, artocarpin] | 2 (≈ 4.58 µM) | 32 (≈ 73.3 µM) | 32 (≈ 73.3 µM) | 4 (≈ 9.16 µM) | – | – | – | – | –
16 (≈ 41.4 µM) | 16 (≈ 41.4 µM) | 128 (≈ 331 µM) | 16 (≈ 41.4 µM) | >200 | CC(C)=CC(O)c1c(-c2cc(O)c(O)cc2O)oc2cc(O)cc(O)c2c1=O (stereo not shown) [Compound 2, 3-(Hydroxyprenyl) isoetin] | 64 (≈ 166 µM) | 32 (≈ 82.8 µM) | > 256 | 32 (≈ 82.8 µM) | – | – | – | – | –
> 256 | 256 (≈ 539 µM) | > 256 | 256 (≈ 539 µM) | 135.70 ± 1.16 (≈ 286 µM) | CC(C)=CCCC(C)=CCCC(C)=CCc1cc(-c2cc(=O)c3c(O)cc(O)cc3o2)ccc1O [Compound 1, 3′-Farnesylapigenin] | > 256 | > 256 | > 256 | > 256 | – | – | – | – | –
4 (≈ 10.4 µM) | 16 (≈ 41.6 µM) | 128 (≈ 333 µM) | 4 (≈ 10.4 µM) | >200 | COc1cc(O)c(-c2oc3cc(O)cc(O)c3c(=O)c2CC=C(C)C)cc1O [Compound 3, 3-Prenyl-5,7,2′,5′-tetrahydroxy-4′-methoxyflavone] | 32 (≈ 83.3 µM) | 64 (≈ 167 µM) | > 256 | 16 (≈ 41.6 µM) | – | – | – | – | –
